In paper PMC11592631, “Novel PP2A-Activating Compounds in Neuroblastoma” (Cancers, 2024):

Columns and labels:
[1] = set-up: method as in PMID 35454859; details: in vivo; cited from earlier work
[2] = set-up: method as in PMID 35454859; details: cited from earlier work
[3] = Pharmacokinetic studies of ATUX-8385 in mice (IV and PO), plasma by LC-MS/MS; type: in vivo
Experimental: Pharmacokinetic (PK) studies of ATUX-8385 were conducted by Eurofins. Briefly, ATUX-8385 was administered at 1 mg/kg intravenously (IV) or 30 mg/kg oral (PO) to male mice, as is the experimental choice of the Contract Research Organization. At euthanasia, samples were collected and stored at −70 °C until processing. The plasma samples were collected at 0.05, 0.167, 0.5, 1, 2, 4, 8, and 24 h(s) after IV treatment, and at 0.167, 0.5, 1, 2, 4, 6, 8, and 24 h(s) after PO treatment. The plasma samples were processed using acetonitrile precipitation and analyzed by liquid chromatography–tandem mass spectrometry (LC-MS/MS).

[4] = In vitro microsome (oxidative) stability / in vitro metabolism; type: in vitro ADME
PP2A = target: T1, PP2A (Homo sapiens, UniProt P30153+P67775+Q15172); assay: PP2A Immunoprecipitation Phosphatase Assay on lysates of treated NB cells; type: cell-based; details: 24 h, control 100%, mean ± SEM
T1 construct: endogenous in cells; host or cells: SK-N-AS, SK-N-BE(2), SH-EP, WAC2 human neuroblastoma cells
Experimental: SK-N-AS, SK-N-BE(2), SH-EP, or WAC2 cells (1 × 10^6) were treated with ATUX-3364 or ATUX-8385 (SK-N-AS and SK-N-BE(2) 4 µM; SH-EP and WAC2 12 µM) for 24 h and lysed using HEPES ((4-(2-hydroxyethyl)-1-piperazineethanesulfonic acid, 10 mM) (AC215001000, Thermo Fisher Scientific), MgCl2 (1.5 mM) (MX0045-4, EM Science, Gibbstown, NJ, USA), KCl (10 mM) (02-003-741, Thermo Fisher Scientific), phenylmethylsulfonyl fluoride (0.5 mM) (PMSF, Sigma Aldrich), dithiothreitol (0.5 mM) (EC-601, National Diagnostics, Atlanta, GA, USA), and Igepal CA-630 (0.2%) (I7771, Sigma Aldrich) on ice for 20 min. Cell lysates were centrifuged at 17 000 rpm for 30 min at 4 °C. A PP2A Immunoprecipitation Phosphatase Assay Kit (17–313, EMD Millipore) was utilized per the manufacturer’s protocol to evaluate the activity of PP2A. Experiments were completed with at least three biological replicates, and data were reported as mean fold change ± standard error of the mean (SEM).

COA6 PDX cells [5] = assay: Cell viability, alamarBlue assay; type: cell-based, human; details: COA6 PDX cells, 0, 5, 10, 20 μM, 24 h
Experimental: (§1) Cell viability was determined by alamarBlue assay (Thermo Fisher Scientific) and proliferation was detected with CellTiter 96 Proliferation assay (Promega, Madison, WI, USA). NB cell lines (15,000 cells for viability or 5000 for proliferation) or COA6 PDX cells (30,000 for viability or 10,000 for proliferation) were seeded in 96-well cell culture plates followed by treatment with increasing doses of ATUX-3364 or ATUX-8385 for 24 h. Doses were as follows: established cell lines, 0–20 µM; PDX COA6 cells, 0–25 µM. Respective dyes (10 µL) were added, and absorbance measurement was completed with a microplate reader (Epoch Microplate Spectrophotometer, BioTek Instruments, Winooski, VT, USA). A wavelength of 570 nm was used for alamarBlue and 490 nm for CellTiter 96 with 600 nm serving as the reference for both. A minimum of three biological replicates for each experiment were completed, and data were reported as fold change ± SEM.

SH-EP cells [6] = assay: Cell viability, alamarBlue assay; type: cell-based, human; details: SH-EP, 0, 5, 7.5, 20 μM, 24 h
Experimental: as §1

SK-N-AS cells [7] = assay: Cell viability, alamarBlue assay; type: cell-based, human; details: SK-N-AS, 0, 5, 7.5, 20 μM, 24 h
Experimental: as §1

SK-N-BE(2) cells [8] = assay: Cell viability, alamarBlue assay; type: cell-based, human; details: SK-N-BE(2), 0, 5, 7.5, 20 μM, 24 h
Experimental: as §1

WAC2 cells [9] = assay: Cell viability, alamarBlue assay; type: cell-based, human; details: WAC2, 0, 5, 7.5, 20 μM, 24 h
Experimental: as §1

COA6 PDX cells [10] = assay: Proliferation, CellTiter 96 assay; type: cell-based, human; details: increasing doses, 24 h
Experimental: as §1

SH-EP cells [11] = assay: Proliferation, CellTiter 96 assay; type: cell-based, human; details: increasing doses, 24 h
Experimental: as §1

SK-N-AS cells [12] = assay: Proliferation, CellTiter 96 assay; type: cell-based, human; details: increasing doses, 24 h
Experimental: as §1

SK-N-BE(2) cells [13] = assay: Proliferation, CellTiter 96 assay; type: cell-based, human; details: increasing doses, 24 h
Experimental: as §1

WAC2 cells [14] = assay: Proliferation, CellTiter 96 assay; type: cell-based, human; details: WAC2, increasing doses, 24 h
Experimental: as §1

SH-EP cells [15] = assay: Monolayer wound healing (scratch) assay; type: cell-based, human; details: 12 μM, vs untreated cells, p ≤ 0.001
Experimental: (§2) Migration was investigated using a monolayer wound healing (scratch) assay. Established NB cells (5 × 10^4) were plated in 12-well plates. […] Photographs of the plates were obtained at 0, 12, 24, and 36 h. The ImageJ MRI Wound Healing Tool (https://imagej.net, accessed on 26 November 2021) quantified the open wound area as previously described. In PDX cells, migration was assessed using modified Boyden chamber assays. Micropore inserts with […] (Corning) were utilized in 24-well plates. The insert bottoms were coated with human laminin (10 µg/mL, 150 μL, EMD Millipore). COA6 PDX cells were treated for 24 h with ATUX-3364 or ATUX-8385 (6 μM), plated (4 × 10^4 cells), allowed to migrate through the membrane for 72 h, and the insert membranes were fixed using 4% paraformaldehyde and stained with 1% crystal violet for 15 min. Inserts were photographed, and migration was quantified with ImageJ (https://imagej.net, accessed on 26 November 2021). Scratch assays were reported as the fold change area remaining open at 36 h, and modified Boyden chamber assays were reported as the mean number of migrated cells ± SEM. Experiments were completed with at least three biological replicates.

SK-N-AS cells [16] = assay: Monolayer wound healing (scratch) assay; type: cell-based, human; details: 4 μM
Experimental: as §2

SK-N-BE(2) cells [17] = assay: Monolayer wound healing (scratch) assay; type: cell-based, human; details: 4 μM, vs untreated cells, p ≤ 0.001
Experimental: as §2

WAC2 cells [18] = assay: Monolayer wound healing (scratch) assay; type: cell-based, human; details: WAC2, 12 μM; vs untreated cells, p ≤ 0.001
Experimental: as §2

COA6 PDX cells [19] = assay: Modified Boyden chamber migration assay; type: cell-based, human; details: COA6, 6 μM, treated 24 h, 72 h migration; p ≤ 0.001
Experimental: as §2

SK-N-AS tumors = assay: In vivo tumor growth, flank xenograft; set-up: species or system athymic nude mice; details: 50 mg/kg oral twice daily, 14 days
Experimental: (§3) SK-N-AS or SK-N-BE(2) (1.5 × 10^6) cells in 25% Matrigel (BD Biosciences) were injected into the right flank of 6-week-old female athymic nude mice (Fredricks) (n = 7 for SK-N-AS vehicle treated, n = 6 for SK-N-AS experimental groups, n = 5 for SK-N-BE(2) vehicle treated, n = 6 for SK-N-BE(2) ATUX-3364, and n = 7 ATUX-8385 treatment groups). Tumors were measured thrice per week with calipers, and tumor volumes were calculated by the formula (width^2 × length)/2, where the width was the smaller measurement. When tumors reached a volume of 60–100 mm^3, animals were randomized to three groups to receive 100 µL twice daily by oral gavage of vehicle [N,N-dimethylacetamide (DMA, 271012, Sigma Aldrich) and Kolliphor HS 15 (Solutol, 42996, Sigma Aldrich)], ATUX-3364 (50 mg/kg in DMA and Solutol), or ATUX-8385 (50 mg/kg in DMA and Solutol); dosing was based on previously published data using in vivo cancer models. Animals were weighed daily and were humanely euthanized in their home cages with CO2 and cervical dislocation 14 (SK-N-AS) or 21 (SK-N-BE(2)) days after treatment initiation, when the tumor volume reached 2000 mm^3, or when animals met IACUC parameters. Because COA6 cells grow tumors unpredictably and erratically in mice, these PDX cells were not utilized for in vivo studies, but all COA6 tumors were propagated in mice.

SK-N-BE(2) tumors = assay: In vivo tumor growth, flank xenograft; set-up: species or system athymic nude mice; details: 50 mg/kg oral twice daily, 21 days
Experimental: as §3

CIP2A = assay: Immunoblotting for the endogenous PP2A inhibitor CIP2A; type: cell-based, human; details: immunoblot
Experimental: (§4) Post-treatment, cell lysis was completed in radioimmunoprecipitation (RIPA) buffer. Phosphatase inhibitors (P5726, Sigma), protease inhibitors (P8340, Sigma), and phenylmethanesulfonylfluoride (PMSF, P7626, Sigma) were added to make a complete RIPA buffer. Lysis was performed for 60 min at 4 °C followed by centrifugation at 17,000 rpm for 30 min (4 °C). The protein concentration was determined using the Pierce BCA Protein Assay (Thermo Fisher Scientific), and protein separation was completed on sodium dodecyl sulfate polyacrylamide (SDS-PAGE) gel-based electrophoresis. Targeted protein size was determined using molecular weight markers (Precision Plus Protein Kaleidoscope, Bio-Rad, Hercules, CA, USA). […] Immunoblots were developed with Luminata Classico or Crescendo Western horseradish peroxidase substrate (EMD Millipore, Burlington, MA, USA) on X-ray film. Anti-beta-actin, anti-vinculin, or anti-GAPDH served as internal loading controls.

SET = assay: Immunoblotting for the endogenous PP2A inhibitor SET; type: cell-based, human; details: immunoblot
Experimental: as §4

PARP = assay: Immunoblotting for cleaved and total PARP (apoptosis); type: cell-based, human; details: immunoblot
Experimental: as §4

MYCN = assay: Immunoblotting for phosphorylated MYCN (S62) and total MYCN; type: cell-based, human; details: increasing concentrations, immunoblot
Experimental: as §4

T1 sequence (P30153 2-589 limits assumed): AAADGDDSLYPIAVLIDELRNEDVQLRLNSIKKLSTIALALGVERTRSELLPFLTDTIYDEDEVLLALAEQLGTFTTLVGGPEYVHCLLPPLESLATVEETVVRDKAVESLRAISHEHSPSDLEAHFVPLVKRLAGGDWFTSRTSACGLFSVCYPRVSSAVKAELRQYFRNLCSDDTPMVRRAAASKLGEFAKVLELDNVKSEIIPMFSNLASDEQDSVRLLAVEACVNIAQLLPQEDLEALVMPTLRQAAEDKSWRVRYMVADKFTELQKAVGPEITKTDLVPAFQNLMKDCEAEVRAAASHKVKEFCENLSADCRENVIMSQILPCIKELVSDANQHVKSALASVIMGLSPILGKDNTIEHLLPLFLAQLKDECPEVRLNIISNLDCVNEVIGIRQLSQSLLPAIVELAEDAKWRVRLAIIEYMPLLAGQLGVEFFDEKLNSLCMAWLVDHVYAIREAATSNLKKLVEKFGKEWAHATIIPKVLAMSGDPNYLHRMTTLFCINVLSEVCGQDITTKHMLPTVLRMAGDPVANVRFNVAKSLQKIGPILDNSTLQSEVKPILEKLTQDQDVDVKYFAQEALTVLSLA
T1 sequence (P67775 whole entry): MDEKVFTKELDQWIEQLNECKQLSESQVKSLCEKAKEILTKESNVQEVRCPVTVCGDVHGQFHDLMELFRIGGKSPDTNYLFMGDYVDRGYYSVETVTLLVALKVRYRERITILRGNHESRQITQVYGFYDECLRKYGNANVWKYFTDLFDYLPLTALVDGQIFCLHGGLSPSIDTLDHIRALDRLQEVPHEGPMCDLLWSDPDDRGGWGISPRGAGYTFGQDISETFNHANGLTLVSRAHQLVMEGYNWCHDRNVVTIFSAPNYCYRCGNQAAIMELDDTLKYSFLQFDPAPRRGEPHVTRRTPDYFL
T1 sequence (Q15172 whole entry): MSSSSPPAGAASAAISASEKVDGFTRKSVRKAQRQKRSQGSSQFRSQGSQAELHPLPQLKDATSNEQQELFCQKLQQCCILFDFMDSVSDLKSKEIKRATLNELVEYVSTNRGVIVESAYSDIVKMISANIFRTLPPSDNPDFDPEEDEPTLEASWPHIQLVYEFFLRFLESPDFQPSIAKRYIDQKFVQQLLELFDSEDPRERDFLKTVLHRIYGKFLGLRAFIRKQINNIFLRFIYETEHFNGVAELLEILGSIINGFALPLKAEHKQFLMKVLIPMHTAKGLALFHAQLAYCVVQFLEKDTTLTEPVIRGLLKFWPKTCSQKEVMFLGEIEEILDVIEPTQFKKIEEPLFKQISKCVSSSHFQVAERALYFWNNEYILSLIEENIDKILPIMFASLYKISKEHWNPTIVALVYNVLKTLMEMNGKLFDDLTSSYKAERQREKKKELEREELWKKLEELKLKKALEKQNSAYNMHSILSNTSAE

O=S(=O)(NC1CCCC(N2c3ccccc3CCc3ccccc32)C1O)c1ccc(OC(F)(F)F)cc1 (stereo not shown) [DBK-1154]
clearance IV [1]: 32.5 mL/min/kg | in vitro microsome (oxidative) stability (clearance) [2]: 234 µL/min/mg

O=S(=O)(N[C@@H]1CNC[C@H](n2c3ccc(F)cc3c3cc(F)ccc32)[C@H]1O)c1ccc(OC(F)(F)F)cc1 [ATUX-8385]
in vivo IV clearance stability relative to DBK-1154 ([3]; 12.3 vs 32.5 mL/min/kg): more stable by a factor of nearly three times | Plasma levels ([3]; for approximately 8 h after a bolus oral dose at 30 mg/kg): 1000 to 2000 nM | microsome stability relative to DBK-1154 ([4]; <115.5 vs 234 µL/min/mg): more stable by a factor of two | Clearance (in vitro microsome (oxidative) stability) ([4]; Test Concentration 1 x 10^-7 M): < 115.5 µL/min/mg | PP2A activation (percent of control) (PP2A; SH-EP cells, 12 μM): 126.6 ± 6.4% | PP2A activation (percent of control) (PP2A; SK-N-AS cells, 4 μM): 134.1 ± 5.5% | PP2A activation (percent of control) (PP2A; SK-N-BE(2) cells, 4 μM): 167.2 ± 13.7% | PP2A activation (percent of control) (PP2A; WAC2 cells, 12 μM): 118.2 ± 9.2% | viability (COA6 PDX cells [5]): significantly decreased | viability (SH-EP cells [6]): significantly decreased viability | viability (SK-N-AS cells [7]): significantly decreased viability | viability (SK-N-BE(2) cells [8]): significantly decreased viability | viability (WAC2 cells [9]): significantly decreased viability | proliferation (COA6 PDX cells [10]): significant decrease | proliferation (SH-EP cells [11]): significant decrease | proliferation (SK-N-AS cells [12]): significant decrease | proliferation (SK-N-BE(2) cells [13]): significant decrease | proliferation (WAC2 cells [14]): significant decrease | motility (wound healing, area remaining open at 36 h) (SH-EP cells [15]): significant decrease in motility | motility (wound healing, area remaining open at 36 h) (SK-N-AS cells [16]): affected in a statistically significant manner | motility (wound healing, area remaining open at 36 h) (SK-N-BE(2) cells [17]): significant decrease in motility | motility (wound healing, area remaining open at 36 h) (WAC2 cells [18]): significant decrease in motility | cell migration (number of migrated cells) (COA6 PDX cells [19]): significantly decreased | relative tumor growth (SK-N-AS tumors): no decrease | tumor volumes (SK-N-AS tumors): no decrease | relative tumor growth (SK-N-BE(2) tumors): significant decrease | tumor volumes (SK-N-BE(2) tumors): significant decrease | CIP2A expression (CIP2A; SH-EP cells): decreased | CIP2A expression (CIP2A; SK-N-AS cells): decreased | CIP2A expression (CIP2A; SK-N-BE(2) cells): decreased | CIP2A expression (CIP2A; WAC2 cells): decreased | SET expression (SET; COA6 PDX cells): variably affected | SET expression (SET; SH-EP cells): did not alter SET expression | SET expression (SET; SK-N-AS cells): unchanged | SET expression (SET; SK-N-BE(2) cells): increased | SET expression (SET; WAC2 cells): decreased | cleaved PARP (PARP; SK-N-AS whole cell lysates): increase | total PARP (PARP; SK-N-AS whole cell lysates): decrease | cleaved PARP (PARP; SK-N-BE(2) whole cell lysates): increase | total PARP (PARP; SK-N-BE(2) whole cell lysates): decrease | phosphorylated MYCN (S62) (MYCN; SK-N-AS cells): decreased | total MYCN protein expression (MYCN; SK-N-AS cells): decreased | phosphorylated MYCN (S62) (MYCN; SK-N-BE(2) cells): decreased | total MYCN protein expression (MYCN; SK-N-BE(2) cells): decreased
